Assays:
Histamine H2 receptor = Histamine H2 receptor (Homo sapiens, UniProt P25021); test: Inhibition of H2 receptor
[1] = molecular target: Histamine H3 receptor (Homo sapiens) (UniProt Q9Y5N1); test: Inhibition of H3 receptor at 10 uM
[2] = molecular target: Beta-1 adrenergic receptor (Homo sapiens) (UniProt P08588); test: Inhibition of beta1 adrenergic receptor at 10 uM
[3] = molecular target: T1, 5-hydroxytryptamine receptor 2C (Homo sapiens) (UniProt P28335); test: Inhibition of 5HT2C receptor at 10 uM
T1 sequence (whole entry): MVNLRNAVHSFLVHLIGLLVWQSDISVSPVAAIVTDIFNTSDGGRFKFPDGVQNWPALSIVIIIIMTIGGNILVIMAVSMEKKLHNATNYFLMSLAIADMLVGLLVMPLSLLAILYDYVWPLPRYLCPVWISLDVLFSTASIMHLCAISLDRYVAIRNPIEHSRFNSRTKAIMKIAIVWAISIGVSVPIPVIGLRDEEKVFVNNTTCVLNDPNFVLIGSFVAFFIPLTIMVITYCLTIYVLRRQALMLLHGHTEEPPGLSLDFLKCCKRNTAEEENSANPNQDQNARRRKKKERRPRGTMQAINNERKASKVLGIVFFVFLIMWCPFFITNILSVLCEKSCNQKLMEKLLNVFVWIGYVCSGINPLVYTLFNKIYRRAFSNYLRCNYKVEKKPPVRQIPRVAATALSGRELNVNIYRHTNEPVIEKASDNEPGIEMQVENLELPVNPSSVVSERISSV

[4] = molecular target: T2, Alpha-1A adrenergic receptor (Homo sapiens) (UniProt P35348); test: Inhibition of alpha1A adrenergic receptor at 10 uM
T2 sequence (whole entry): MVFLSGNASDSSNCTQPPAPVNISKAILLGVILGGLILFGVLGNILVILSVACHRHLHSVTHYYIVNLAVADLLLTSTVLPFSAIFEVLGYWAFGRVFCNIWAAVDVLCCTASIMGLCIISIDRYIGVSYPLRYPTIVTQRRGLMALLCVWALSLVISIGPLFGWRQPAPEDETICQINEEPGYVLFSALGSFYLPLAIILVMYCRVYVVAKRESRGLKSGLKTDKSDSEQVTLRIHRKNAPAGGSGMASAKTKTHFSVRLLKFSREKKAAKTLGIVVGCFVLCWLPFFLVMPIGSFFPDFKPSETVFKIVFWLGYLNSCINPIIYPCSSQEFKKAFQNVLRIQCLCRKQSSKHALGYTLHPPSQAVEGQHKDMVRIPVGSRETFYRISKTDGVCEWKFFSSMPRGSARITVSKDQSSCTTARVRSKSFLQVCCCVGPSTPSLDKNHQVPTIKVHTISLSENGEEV

[5] = molecular target: T3, Alpha-1B adrenergic receptor (Homo sapiens) (UniProt P35368); test: Inhibition of Alpha-1B adrenergic receptor at 10 uM
T3 sequence (whole entry): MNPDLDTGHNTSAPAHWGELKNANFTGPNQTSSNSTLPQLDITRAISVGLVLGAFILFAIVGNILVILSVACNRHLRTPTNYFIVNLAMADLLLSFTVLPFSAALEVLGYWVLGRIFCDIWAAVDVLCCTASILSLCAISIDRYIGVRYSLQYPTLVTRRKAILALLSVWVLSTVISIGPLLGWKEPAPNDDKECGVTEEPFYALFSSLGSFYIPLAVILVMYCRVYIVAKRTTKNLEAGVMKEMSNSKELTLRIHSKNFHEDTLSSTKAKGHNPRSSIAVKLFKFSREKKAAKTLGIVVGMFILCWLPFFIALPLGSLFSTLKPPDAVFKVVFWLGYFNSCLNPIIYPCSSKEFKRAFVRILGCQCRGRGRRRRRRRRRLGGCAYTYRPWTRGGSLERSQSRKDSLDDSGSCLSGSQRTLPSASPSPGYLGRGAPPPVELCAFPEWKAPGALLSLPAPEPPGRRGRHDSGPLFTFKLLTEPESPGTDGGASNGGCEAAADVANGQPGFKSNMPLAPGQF

[6] = molecular target: Sodium-dependent dopamine transporter (Homo sapiens, UniProt Q01959); test: Displacement of [3H]WIN-35428 form human DAT expressed in HEK cell membranes; parameters: species or system HEK293
[7] = molecular target: Sodium-dependent serotonin transporter (Homo sapiens, UniProt P31645); test: Displacement of [3H]citalopram from human SERT expressed in HEK cells; format: cell-based, HEK293; conditions: for inhibition: HEK293, concentration not given here
[8] = molecular target: Mu-type opioid receptor (Homo sapiens) (UniProt P35372); test: Inhibition of mu opioid receptor at 10 uM
[9] = molecular target: Delta-type opioid receptor (Homo sapiens) (UniProt P41143); test: Inhibition of delta opioid receptor at 10 uM
[10] = molecular target: 5-hydroxytryptamine receptor 1D (Homo sapiens) (UniProt P28221); test: Inhibition of 5HT1D receptor at 10 uM
[11] = molecular target: T4, Alpha-1D adrenergic receptor (Homo sapiens) (UniProt P25100); test: Inhibition of Alpha-1D adrenergic receptor at 10 uM
T4 sequence (whole entry): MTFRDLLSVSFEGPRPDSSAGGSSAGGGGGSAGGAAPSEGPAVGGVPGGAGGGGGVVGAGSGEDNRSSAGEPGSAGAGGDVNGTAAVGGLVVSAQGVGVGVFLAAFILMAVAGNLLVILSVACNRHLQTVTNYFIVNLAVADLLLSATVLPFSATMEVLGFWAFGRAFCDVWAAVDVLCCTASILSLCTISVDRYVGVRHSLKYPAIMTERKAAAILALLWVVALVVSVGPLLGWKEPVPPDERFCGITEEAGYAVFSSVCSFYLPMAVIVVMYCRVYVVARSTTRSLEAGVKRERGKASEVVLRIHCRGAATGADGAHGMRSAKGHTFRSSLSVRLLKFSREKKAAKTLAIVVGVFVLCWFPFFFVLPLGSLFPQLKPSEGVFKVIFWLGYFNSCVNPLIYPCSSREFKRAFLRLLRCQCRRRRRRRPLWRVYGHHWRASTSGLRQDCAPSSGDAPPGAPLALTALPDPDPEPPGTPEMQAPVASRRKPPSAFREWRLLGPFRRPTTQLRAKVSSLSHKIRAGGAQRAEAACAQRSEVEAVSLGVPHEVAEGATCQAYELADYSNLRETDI

[12] = molecular target: 5-hydroxytryptamine receptor 6 (Homo sapiens, UniProt P50406); test: Inhibition of 5HT6 receptor at 10 uM
5-hydroxytryptamine receptor 6, sequence (P50406 whole entry): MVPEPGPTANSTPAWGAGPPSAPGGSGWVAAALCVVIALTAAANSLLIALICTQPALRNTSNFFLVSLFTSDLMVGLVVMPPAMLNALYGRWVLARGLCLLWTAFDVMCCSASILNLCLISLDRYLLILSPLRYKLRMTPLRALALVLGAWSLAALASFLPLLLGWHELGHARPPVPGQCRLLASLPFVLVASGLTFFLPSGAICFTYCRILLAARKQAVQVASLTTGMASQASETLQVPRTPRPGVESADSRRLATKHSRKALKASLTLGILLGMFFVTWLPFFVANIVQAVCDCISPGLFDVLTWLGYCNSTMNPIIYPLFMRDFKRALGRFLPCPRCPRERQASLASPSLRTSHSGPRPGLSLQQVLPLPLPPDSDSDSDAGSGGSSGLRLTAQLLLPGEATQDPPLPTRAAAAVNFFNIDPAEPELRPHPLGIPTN

Beta-1 adrenergic receptor (Homo sapiens), sequence (P08588 whole entry, looked up): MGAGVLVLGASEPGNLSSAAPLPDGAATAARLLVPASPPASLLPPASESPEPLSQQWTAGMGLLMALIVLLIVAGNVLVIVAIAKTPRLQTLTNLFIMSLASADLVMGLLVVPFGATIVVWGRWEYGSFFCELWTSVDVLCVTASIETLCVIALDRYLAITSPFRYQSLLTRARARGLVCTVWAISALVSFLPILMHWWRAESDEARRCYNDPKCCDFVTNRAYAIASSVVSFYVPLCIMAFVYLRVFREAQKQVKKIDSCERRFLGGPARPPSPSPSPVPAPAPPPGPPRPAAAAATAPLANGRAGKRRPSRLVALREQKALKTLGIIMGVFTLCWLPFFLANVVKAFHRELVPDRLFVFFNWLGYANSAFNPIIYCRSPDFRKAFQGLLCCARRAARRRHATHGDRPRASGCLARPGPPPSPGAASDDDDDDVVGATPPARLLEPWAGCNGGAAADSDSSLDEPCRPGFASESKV
Mu-type opioid receptor (Homo sapiens), sequence (P35372 whole entry): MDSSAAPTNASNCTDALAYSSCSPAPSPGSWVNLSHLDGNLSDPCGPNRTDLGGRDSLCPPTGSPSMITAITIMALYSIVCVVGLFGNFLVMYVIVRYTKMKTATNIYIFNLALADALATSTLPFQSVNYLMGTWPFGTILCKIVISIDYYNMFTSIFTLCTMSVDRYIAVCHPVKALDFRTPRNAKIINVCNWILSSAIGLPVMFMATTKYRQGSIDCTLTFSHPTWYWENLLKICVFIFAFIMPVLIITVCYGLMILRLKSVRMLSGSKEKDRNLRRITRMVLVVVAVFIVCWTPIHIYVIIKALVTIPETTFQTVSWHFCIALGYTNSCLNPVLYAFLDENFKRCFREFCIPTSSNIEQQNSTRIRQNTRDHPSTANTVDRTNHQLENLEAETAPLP
5-hydroxytryptamine receptor 1D (Homo sapiens), sequence (P28221 whole entry): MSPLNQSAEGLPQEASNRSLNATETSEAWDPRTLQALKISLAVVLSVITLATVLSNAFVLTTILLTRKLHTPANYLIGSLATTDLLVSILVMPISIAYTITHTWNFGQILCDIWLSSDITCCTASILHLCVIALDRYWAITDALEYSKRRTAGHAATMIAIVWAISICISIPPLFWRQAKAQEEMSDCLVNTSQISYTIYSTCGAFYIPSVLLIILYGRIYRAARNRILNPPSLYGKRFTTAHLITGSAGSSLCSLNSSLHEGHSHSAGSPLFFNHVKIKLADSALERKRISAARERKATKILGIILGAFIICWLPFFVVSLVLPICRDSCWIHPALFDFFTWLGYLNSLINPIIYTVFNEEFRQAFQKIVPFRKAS
Delta-type opioid receptor (Homo sapiens), sequence (P41143 whole entry): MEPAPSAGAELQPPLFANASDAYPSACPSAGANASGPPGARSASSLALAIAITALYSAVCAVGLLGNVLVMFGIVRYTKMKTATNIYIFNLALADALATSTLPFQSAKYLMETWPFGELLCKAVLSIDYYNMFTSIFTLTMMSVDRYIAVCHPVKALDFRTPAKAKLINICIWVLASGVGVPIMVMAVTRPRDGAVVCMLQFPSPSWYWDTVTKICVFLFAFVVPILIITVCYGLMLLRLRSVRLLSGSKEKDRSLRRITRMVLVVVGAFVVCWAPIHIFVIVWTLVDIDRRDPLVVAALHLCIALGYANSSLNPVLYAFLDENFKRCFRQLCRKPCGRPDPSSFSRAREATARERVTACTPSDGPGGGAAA
Histamine H2 receptor, sequence (P25021 whole entry): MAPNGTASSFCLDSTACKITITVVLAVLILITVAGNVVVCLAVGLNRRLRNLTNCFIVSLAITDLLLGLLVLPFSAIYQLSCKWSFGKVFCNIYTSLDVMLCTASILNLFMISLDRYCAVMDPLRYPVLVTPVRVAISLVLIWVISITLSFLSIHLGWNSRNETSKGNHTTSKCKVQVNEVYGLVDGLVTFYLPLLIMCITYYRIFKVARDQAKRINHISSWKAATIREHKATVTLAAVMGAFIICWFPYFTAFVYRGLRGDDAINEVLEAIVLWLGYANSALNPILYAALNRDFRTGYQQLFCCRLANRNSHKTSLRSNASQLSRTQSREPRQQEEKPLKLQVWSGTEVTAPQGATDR
Sodium-dependent dopamine transporter, sequence (Q01959 whole entry): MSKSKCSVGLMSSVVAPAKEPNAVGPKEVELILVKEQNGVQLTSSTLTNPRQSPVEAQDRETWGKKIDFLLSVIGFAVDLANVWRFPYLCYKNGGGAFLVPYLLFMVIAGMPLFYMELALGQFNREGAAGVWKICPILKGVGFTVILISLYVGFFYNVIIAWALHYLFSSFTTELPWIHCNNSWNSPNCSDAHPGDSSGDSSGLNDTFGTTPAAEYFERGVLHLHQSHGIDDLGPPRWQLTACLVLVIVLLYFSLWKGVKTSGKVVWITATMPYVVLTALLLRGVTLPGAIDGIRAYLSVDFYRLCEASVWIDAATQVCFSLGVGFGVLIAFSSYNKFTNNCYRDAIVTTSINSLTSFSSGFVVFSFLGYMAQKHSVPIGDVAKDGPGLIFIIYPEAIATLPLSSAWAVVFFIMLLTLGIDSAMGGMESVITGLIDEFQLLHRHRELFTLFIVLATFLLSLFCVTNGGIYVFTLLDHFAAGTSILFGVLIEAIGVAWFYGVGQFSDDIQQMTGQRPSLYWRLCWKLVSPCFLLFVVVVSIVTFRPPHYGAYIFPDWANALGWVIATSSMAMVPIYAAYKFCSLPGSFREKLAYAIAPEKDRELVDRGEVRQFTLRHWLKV
Histamine H3 receptor (Homo sapiens), sequence (Q9Y5N1 whole entry): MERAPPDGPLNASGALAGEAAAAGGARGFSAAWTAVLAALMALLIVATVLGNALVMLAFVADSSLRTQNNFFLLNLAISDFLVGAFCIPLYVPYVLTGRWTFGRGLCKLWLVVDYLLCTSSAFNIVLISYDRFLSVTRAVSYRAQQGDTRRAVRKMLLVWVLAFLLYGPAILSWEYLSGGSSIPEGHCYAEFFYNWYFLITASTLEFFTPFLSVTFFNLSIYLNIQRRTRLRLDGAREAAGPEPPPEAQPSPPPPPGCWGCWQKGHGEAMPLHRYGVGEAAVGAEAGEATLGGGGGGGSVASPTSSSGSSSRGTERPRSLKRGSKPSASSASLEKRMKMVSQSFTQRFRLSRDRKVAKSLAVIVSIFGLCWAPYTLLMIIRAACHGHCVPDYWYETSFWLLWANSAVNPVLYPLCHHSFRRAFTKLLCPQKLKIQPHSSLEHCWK

SMILES | Ki (Histamine H2 receptor) [nM] | inhibition [1] [%] | inhibition [2] [%] | inhibition [3] [%] | inhibition [4] [%] | inhibition [5] [%] | Ki [6] [nM] | Ki [7] [nM] | inhibition [8] [%] | inhibition [9] [%] | inhibition [10] [%] | inhibition [11] [%] | inhibition [12] [%] | inhibition [7] [%]
Fc1cccc(CN[C@H]2C3C4CC5C6C4CC3C6C52)c1 (stereo not given in full) | 2150 | < 50 | < 50 | < 50 | < 50 | < 50 | 3440 | > 10000 | < 50 | < 50 | < 50 | < 50 | < 50 | 
CN(CCc1cccc(F)c1)[C@H]1C2C3CC4C5C3CC2C5C41 (stereo not given in full) | 4450 | < 50 | < 50 | < 50 | < 50 | < 50 | 101 |  | < 50 | < 50 | < 50 | < 50 | < 50 | < 50
CN(Cc1cccc(F)c1)[C@H]1C2C3CC4C5C3CC2C5C41 (stereo not given in full) |  | < 50 | < 50 | < 50 | < 50 | < 50 | 1.2 |  | < 50 | < 50 | < 50 | < 50 | < 50 | < 50
Fc1cccc(CCN[C@H]2C3C4CC5C6C4CC3C6C52)c1 (stereo not given in full) | 4420 | < 50 | < 50 | < 50 | < 50 | < 50 | 1680 | > 10000 | < 50 | < 50 | < 50 | < 50 |  | 
